Apoenzyme reactivation data for one molecule are collected here from article PMC5034429, “Enantioselective cascade biocatalysis for deracemization of 2-hydroxy acids using a three-enzyme system” (Microbial Cell Factories, 2016).

For this experiment, the target named is T1, (S)-2-HADH from P. aeruginosa NUST (Pseudomonas aeruginosa, UniProt R9RKA7).
T1 construct: synthetic gene in pET28b, E. coli BL21(DE3); resting cells; ~42 kDa on SDS-PAGE; FMN flavoprotein; strain also misprinted NSUT
T1 sequence (R9RKA7 1-393): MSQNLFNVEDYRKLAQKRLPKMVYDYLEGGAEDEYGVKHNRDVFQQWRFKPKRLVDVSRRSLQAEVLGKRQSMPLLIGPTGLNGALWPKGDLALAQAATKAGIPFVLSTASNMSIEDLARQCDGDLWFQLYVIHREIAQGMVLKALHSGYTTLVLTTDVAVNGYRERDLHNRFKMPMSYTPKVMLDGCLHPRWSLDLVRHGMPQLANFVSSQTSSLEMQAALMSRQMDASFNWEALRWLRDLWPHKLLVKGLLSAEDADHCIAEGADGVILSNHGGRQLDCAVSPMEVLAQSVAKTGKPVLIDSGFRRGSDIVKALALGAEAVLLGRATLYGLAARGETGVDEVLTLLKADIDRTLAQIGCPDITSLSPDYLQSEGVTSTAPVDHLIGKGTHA
Description: apoenzyme reactivation. In kind it is biochemical. The note with it: flavin removal, then addition of FMN.

`Cc1cc2nc3c(=O)[nH]c(=O)nc-3n(C[C@H](O)[C@H](O)[C@H](O)COP(=O)(O)O)c2cc1C` [FMN]: the apoenzyme reactivation entry was “The activity of the apoenzyme was partly reactivated by the addition of FMN”.
